The record followed here is patent EP0415219A1, “ANF-Antagonist” (F. HOFFMANN-LA ROCHE AG, priority 1989, dated 1991).

Where a SMILES comes first, the peptide text is derived from it. Bridges are numbered along the chain shown (N, C = ends).

Assay [1] deals with ANF Rezeptor (Membranpräparation von Rindernebennieren). As to the kind of experiment: Binding test: displacement of radiolabelled ANF from its receptor (membrane preparation of bovine adrenal glands). On the set-up: species or system Rind. The conditions noted are these: inhibition of ¹²⁵I-ANF (18,2 pM) binding, 24 h at 4°C; read-out: IC₅₀. The procedure:
In einem Bindungstest nach Bürgisser et al. [Biochem. Biophys. Res. Comm. 133, 1201 (1985)] wurde die Verdrängung von radioaktiv-markiertem ANF von dessen Rezeptor durch den ANF-Antagonisten gemessen. Als Rezeptorpräparation wurde eine Membranpräparation von Rindernebennieren verwendet. Zu 100 µl dieser Präparation in 50 mM Tris/HCl, 500 mM MgCl₂, 1 mM EDTA. 0,5% Rinderserumalbumin und 1 mM o-Phenanthrolin, pH 7,6, wurden ¹²⁵I-ANF (20'000 cpm. 18,2 pM) in 145 µl dieses Puffers und der Ligand in 5 µl Dimethylsulfoxid gegeben. Diese Mischung wurde 24 Stunden bei 4°C inkubiert und gebundenes von freiem ANF durch schnelle Filtration über Whatman GF/C Glasfaserfilter abgetrennt. Nach dreimaligem Waschen der Filter mit obigem Puffer (3 x 4 ml) wurden die Filter zerschnitten und deren Radioaktivität im Gamma-Zähler gemessen. Die Inhibition der Bindung wurde quantitativ mit der IC₅₀ erfasst, worunter diejenige Konzentration an entsprechendem Liganden zu verstehen ist, bei der die Bindung von ¹²⁵I-ANF halbmaximal gehemmt wird. Tabelle

In assay [2] the test system is spontanhypertensive Ratten (SHR). As to the kind of experiment: In vivo blood pressure in conscious SHR under ANF infusion. The conditions noted are these: bolus 1 mg/kg after ANF infusion 2.5 µg/kg/min. The procedure: (§1) Für die in vivo Versuche wurden 20 Wochen alte spontanhypertensive Ratten (SHR) oder normotensive pathogen-freie (SPF) Ratten verwendet. In wache SHR wurde 2.5 µg/kg/min ANF infundiert, was den Blutdruck um 45 mm Hg senkte. Eine anschliessende Bolusgabe von 1 mg/kg ANF-Antagonist erhöhte den Blutduck wiederum auf den Ausgangswert von 220 mm Hg. Anästhesierten SPF-Ratten ohne zentrale Reflexe ("pithed rats") wurde Angiotensin II (0,15 µg/kg/min) infundiert, um den Blutdruck auf 100-110 mm Hg anzuheben. Dann wurde ein Bolus von 10 µg/kg ANF gegeben. was den Blutdruck um 20 mm Hg senkte. […] Diese Versuche zeigen, dass der Blutdruckanstieg unter dem ANF-Antagonisten nicht auf eine Aktivierung von symphatischen Reflexen, sondern auf die Wirkung eines ANF-Antagonisten zurückzuführen ist.

Assay [3] has as its system SPF-Ratten ohne zentrale Reflexe ("pithed rats"). Description: In vivo blood pressure in anaesthetised pithed SPF rats under angiotensin II infusion. The following applies: Angiotensin II 0,15 µg/kg/min, 1 mg/kg i.v. after bolus of 10 µg/kg ANF. The procedure: as §1

In the case of `CC[C@H](C)[C@@H]1NC(=O)[C@H](Cc2ccccc2)NC(=O)CNC(=O)C[C@@H](C(=O)N[C@H](C(=O)N[C@@H](Cc2ccccc2)C(=O)NCC(=O)N[C@@H](Cc2c[nH]cn2)C(=O)N[C@@H](Cc2ccc(O)cc2)C(=O)N[C@@H](CO)C(=O)NCC(=O)N[C@@H](CC(=O)O)C(=O)N[C@@H](Cc2ccccc2)C(=O)O)[C@@H](C)CC)NC(=O)[C@H](CC(N)=O)NC(=O)CNC(=O)[C@H](Cc2c[nH]c3ccccc23)NC(=O)CNC1=O` [ANF-Antagonist] (GFIGWGNDIFGHYSGDF-OH; lactam N-8; C-terminus assumed), the IC50 in assay [1] is 860 nM. The “Blutdruck nach Bolusgabe (erhöht auf den Ausgangswert)” value in assay [2] is recorded as 220 mm Hg. For the same compound, the “Blutdruck nach intravenöser Gabe” value in assay [3] is “erhöhte den Blutdruck wiederum auf den Ausgangswert”.
Regarding `CC[C@H](C)[C@@H]1NC(=O)[C@H](Cc2ccccc2)NC(=O)CNC(=O)C[C@@H](C(=O)N[C@H](C(=O)N[C@@H](Cc2ccccc2)C(=O)NCC(=O)N[C@@H](Cc2c[nH]cn2)C(=O)N[C@@H](Cc2ccc(O)cc2)C(=O)N[C@@H](CO)C(=O)NCC(=O)N[C@@H](CC(=O)OC)C(=O)N[C@@H](Cc2ccccc2)C(=O)OC)[C@@H](C)CC)NC(=O)[C@H](CC(N)=O)NC(=O)CNC(=O)[C@H](Cc2c[nH]c3ccccc23)NC(=O)CNC1=O` [Dimethylester] (GFIGWGNDIFGHYSGD(OMe)F-OMe; lactam N-8), the IC50 in assay [1] is 2500 nM.
